Results reported in patent US20200392158A1, “INHIBITORS OF LEUCINE RICH REPEAT KINASE 2” (GLAXOSMITHKLINE INTELLECTUAL PROPERTY DEVELOPMENT LIMITED, priority 2017, published 2020).

Legend:
[1] = target: T1, full length G2019 human LRRK2 (Homo sapiens, UniProt Q5S007, R50H); assay: Full length G2019 human LRRK2 inhibition mass spectrometry assay; type: biochemical; settings: LRRKtide to phospho-LRRKtide conversion, RapidFire MS, 2 mM ATP
T1 construct: made in house; host or cells: HEK293 6E cells transduced with BacMam virus (virus generated in Sf9 cells)
Outline: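 Purified full-length Flag-tagged G2019 LRRK2, ~25 nM, with 25 μM LRRKtide and 2 mM ATP in 50 mM Hepes pH 7.2, 10 mM MgCl2, 150 mM NaCl, 1 h at room temperature. Quenched with formic acid; phospho- and unphosphorylated LRRKtide measured by RapidFire MS. pIC50 from 4-parameter fit of % conversion, 11 points, top 100 μM.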

[2] = target: T2, LRRK2 kinase in SH-SY5Y cells over-expressing recombinant full length LRRK2 (Homo sapiens, UniProt Q5S007); assay: Recombinant cellular LRRK2 AlphaScreen assay (LRRK2 Ser935 phosphorylation); type: cell-based; settings: 60 min
T2 construct: A BacMam virus expressing full length recombinant LRRK2 was purchased from Invitrogen; host or cells: SH-SY5Y human neuroblastoma cells transduced with BacMam LRRK2 virus
Outline: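 SH-SY5Y cells transduced with BacMam full-length LRRK2 (MOI 50) for 24 h, then treated 60 min at 37 °C with compound (11-point 1:4 series, top 10 uM, 0.1% DMSO). Lysates probed by AlphaScreen for pSer935 vs total LRRK2; values fitted to a sigmoidal dose-response model.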

T2 sequence (Q5S007 whole entry): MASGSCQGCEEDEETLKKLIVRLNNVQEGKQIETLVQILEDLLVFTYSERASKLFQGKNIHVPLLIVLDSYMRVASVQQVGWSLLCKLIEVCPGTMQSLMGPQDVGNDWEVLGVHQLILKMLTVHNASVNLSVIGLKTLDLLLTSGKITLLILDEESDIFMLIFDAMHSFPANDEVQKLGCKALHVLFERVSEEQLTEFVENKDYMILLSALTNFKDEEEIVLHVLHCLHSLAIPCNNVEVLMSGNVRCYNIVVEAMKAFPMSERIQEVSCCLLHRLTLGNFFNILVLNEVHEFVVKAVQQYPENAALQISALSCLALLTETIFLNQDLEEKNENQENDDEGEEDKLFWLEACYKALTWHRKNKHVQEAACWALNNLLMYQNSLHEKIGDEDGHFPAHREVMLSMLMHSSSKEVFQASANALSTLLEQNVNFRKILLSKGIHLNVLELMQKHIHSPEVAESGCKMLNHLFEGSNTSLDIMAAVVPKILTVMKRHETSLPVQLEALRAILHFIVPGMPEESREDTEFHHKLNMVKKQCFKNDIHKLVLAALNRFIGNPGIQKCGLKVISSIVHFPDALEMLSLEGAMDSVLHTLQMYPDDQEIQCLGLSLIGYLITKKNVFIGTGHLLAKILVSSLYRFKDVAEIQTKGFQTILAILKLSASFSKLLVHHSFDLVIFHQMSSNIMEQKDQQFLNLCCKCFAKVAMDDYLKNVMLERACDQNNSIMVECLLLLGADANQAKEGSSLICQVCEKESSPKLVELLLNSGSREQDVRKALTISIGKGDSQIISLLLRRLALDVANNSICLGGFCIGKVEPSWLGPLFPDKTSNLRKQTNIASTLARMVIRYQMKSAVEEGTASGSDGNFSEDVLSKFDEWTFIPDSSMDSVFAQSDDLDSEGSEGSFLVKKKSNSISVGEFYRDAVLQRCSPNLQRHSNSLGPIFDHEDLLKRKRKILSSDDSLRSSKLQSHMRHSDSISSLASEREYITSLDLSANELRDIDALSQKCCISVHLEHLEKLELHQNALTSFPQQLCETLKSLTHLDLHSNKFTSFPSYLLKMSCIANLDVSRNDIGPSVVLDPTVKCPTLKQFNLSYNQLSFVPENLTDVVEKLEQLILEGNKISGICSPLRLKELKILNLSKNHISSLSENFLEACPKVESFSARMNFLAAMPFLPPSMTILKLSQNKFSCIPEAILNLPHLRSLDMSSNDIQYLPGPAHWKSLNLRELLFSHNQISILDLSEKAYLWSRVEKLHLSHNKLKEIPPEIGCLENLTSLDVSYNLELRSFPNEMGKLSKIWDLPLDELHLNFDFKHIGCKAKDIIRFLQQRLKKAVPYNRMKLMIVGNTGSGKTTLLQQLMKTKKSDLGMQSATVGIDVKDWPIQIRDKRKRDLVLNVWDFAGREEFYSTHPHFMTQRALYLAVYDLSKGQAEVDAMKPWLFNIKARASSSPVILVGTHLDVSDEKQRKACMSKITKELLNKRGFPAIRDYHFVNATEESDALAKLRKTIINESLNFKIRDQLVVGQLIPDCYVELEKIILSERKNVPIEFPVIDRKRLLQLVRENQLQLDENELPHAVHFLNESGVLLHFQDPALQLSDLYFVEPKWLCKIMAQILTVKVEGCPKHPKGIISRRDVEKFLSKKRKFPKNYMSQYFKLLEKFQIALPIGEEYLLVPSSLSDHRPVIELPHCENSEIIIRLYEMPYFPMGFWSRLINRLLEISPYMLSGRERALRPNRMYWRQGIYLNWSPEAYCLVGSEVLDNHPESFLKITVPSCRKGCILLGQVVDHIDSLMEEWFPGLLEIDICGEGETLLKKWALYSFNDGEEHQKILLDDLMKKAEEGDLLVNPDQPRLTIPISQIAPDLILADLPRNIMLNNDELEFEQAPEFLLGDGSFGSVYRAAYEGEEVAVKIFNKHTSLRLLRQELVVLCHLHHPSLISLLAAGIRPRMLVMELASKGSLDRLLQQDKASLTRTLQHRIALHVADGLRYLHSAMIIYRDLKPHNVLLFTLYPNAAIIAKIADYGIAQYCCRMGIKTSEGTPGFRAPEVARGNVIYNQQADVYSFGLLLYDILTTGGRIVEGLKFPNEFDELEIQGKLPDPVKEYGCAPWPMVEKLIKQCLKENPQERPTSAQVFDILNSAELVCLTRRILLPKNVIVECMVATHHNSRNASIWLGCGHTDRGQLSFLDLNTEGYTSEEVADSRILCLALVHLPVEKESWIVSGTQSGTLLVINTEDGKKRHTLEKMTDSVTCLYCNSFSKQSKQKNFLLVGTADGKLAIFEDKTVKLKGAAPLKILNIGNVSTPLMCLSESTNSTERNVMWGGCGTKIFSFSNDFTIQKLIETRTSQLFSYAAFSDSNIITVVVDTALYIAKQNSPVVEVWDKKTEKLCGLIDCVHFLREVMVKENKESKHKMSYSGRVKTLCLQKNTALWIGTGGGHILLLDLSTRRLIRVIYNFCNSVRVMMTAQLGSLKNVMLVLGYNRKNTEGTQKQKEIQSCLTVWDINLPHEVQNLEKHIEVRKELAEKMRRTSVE
T1 sequence (Q5S007 with tags, fused parts or gaps R50H): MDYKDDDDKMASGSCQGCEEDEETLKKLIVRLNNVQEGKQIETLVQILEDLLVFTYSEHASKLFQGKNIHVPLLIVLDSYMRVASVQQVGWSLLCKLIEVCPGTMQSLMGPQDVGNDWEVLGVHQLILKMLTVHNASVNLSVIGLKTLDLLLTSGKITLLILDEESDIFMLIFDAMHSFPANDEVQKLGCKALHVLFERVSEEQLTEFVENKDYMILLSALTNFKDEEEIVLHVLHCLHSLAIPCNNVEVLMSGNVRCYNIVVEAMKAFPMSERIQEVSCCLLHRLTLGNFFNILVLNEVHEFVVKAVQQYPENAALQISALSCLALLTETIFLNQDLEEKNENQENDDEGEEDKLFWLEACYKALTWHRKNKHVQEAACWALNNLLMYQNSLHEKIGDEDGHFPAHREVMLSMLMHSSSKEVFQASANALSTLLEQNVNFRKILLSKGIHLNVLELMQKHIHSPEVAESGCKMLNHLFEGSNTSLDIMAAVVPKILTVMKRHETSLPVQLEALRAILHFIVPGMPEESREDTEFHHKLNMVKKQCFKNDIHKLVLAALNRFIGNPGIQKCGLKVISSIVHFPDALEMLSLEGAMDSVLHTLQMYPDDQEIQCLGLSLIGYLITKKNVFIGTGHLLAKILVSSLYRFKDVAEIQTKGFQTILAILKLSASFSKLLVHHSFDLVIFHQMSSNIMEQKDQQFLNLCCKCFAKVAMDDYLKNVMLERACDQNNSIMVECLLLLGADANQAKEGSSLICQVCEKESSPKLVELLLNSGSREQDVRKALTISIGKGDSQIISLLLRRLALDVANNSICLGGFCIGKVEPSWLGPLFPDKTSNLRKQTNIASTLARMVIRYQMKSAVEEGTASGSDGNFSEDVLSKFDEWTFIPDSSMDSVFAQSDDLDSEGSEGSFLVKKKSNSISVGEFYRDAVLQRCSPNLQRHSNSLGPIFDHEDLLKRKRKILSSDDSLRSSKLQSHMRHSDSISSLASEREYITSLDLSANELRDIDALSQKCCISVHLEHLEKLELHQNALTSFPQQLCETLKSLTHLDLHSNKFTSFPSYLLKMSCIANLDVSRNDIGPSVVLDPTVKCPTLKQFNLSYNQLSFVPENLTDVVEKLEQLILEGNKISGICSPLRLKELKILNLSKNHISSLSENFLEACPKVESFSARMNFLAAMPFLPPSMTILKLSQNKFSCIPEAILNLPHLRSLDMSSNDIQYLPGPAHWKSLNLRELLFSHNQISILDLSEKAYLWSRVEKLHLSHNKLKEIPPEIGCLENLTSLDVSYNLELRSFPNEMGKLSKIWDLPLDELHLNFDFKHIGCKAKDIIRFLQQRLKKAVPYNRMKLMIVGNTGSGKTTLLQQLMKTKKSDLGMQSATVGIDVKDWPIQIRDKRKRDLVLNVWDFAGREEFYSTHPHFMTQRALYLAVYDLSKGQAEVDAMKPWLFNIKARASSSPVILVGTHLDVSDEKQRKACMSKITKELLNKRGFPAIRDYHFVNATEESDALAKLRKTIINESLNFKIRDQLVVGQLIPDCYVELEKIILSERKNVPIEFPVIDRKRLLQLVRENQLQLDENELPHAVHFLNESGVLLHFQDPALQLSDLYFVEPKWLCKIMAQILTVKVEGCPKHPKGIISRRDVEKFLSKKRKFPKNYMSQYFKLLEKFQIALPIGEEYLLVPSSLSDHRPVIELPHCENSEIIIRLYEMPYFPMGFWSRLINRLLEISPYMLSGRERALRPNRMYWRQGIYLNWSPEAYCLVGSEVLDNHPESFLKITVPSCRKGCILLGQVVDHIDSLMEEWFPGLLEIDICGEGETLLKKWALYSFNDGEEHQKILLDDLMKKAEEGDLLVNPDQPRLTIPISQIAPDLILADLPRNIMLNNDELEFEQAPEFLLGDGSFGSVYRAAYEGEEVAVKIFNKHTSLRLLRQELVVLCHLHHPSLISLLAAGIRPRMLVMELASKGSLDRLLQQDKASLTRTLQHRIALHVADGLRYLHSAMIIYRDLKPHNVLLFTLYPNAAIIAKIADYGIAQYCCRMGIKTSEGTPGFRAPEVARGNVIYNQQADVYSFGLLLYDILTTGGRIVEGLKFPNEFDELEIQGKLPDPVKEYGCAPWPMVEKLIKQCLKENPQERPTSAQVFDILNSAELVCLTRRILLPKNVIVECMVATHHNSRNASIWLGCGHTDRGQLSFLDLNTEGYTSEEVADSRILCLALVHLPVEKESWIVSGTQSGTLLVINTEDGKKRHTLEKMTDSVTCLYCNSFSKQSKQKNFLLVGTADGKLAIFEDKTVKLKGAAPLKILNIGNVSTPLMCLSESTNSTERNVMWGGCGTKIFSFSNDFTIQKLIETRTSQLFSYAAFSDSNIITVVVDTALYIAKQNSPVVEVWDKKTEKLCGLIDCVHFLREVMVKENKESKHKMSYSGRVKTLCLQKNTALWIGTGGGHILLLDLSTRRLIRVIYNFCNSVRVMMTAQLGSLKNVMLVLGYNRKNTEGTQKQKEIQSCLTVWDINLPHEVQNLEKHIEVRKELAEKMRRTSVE

Cc1c2c(nn1C1CCOCC1)OCC(F)(F)CNc1nc(ncc1Cl)N2 [E377, 14-Chloro-10,10-difluoro-4-methyl-5-(oxan-4-yl)-8-oxa-2,5,6,12,16,17-hexaazatricyclo[11.3.1.0^3,7]heptadeca-1(16),3,6,13(17),14-pentaene]
IC50 [1]: ≤ 100 nM
IC50 [2]: ≤ 100 nM

Cc1c2c(nn1C1CC(OC(F)F)C1)OCC[C@@H](C)Nc1nc(ncc1Cl)N2 (stereo partly drawn) [E378, (11R)-14-Chloro-5-[3-(difluoromethoxy)cyclobutyl]-4,11-dimethyl-8-oxa-2,5,6,12,16,17-hexaazatricyclo[11.3.1.0^3,7] heptadeca-1(16),3,6,13(17),14-pentaene]
IC50 [1]: ≤ 100 nM
IC50 [2]: ≤ 100 nM

Cc1c2c(nn1C1CCCOC1)OCCCNc1cc(ncc1Cl)N2 (stereo not drawn) [E379, 14-Chloro-4-methyl-5-(oxan-3-yl)-8-oxa-2,5,6,12,16-pentaazatricyclo[11.3.1.0^3,7] heptadeca-1 (16),3,6,13(17),14-pentaene]
IC50 [1]: ≤ 100 nM
IC50 [2]: ≤ 100 nM

Cc1c2c(nn1C1CCN(C3CCOC3)CC1)OCC[C@@H](C)Nc1nc(ncc1Cl)N2 (stereo partly drawn) [E382, (11R)-14-Chloro-4,11-dimethyl-5-[1-(oxolan-3-yl)piperidin-4-yl]-8-oxa-2,5,6,12,16,17-hexaazatricyclo[11.3.1.0^3,7]heptadeca-1(16),3,6,13(17),14-pentaene]
IC50 [1]: ≤ 100 nM
IC50 [2]: ≤ 100 nM

Cc1c2c(nn1C1CN(C3CCCOC3)C1)OCC[C@@H](C)Nc1nc(ncc1Cl)N2 (stereo partly drawn) [E385, (11R)-14-Chloro-4,11-dimethyl-5[1-(oxan-3-yl)azetidin-3-yl]-8-oxa-2,5,6,12,16,17-hexaazatricyclo[11.3.1.0^3,7]heptadeca-1(16),3,6,13(17),14-pentaene]
IC50 [1]: ≤ 100 nM
IC50 [2]: ≤ 100 nM

Cc1c2c(nn1C1CCOC(C)C1)OCCC(C(F)F)Nc1nc(ncc1Cl)N2 (stereo not drawn) [E386, 14-Chloro-11-(difluoromethyl)-4-methyl-5-(2-methyloxan-4-yl)-8-oxa-2,5,6,12,16,17-hexaazatricyclo[11.3.1.0^3,7]heptadeca-1(16),3,6,13(17),14-pentaene]
IC50 [1]: ≤ 100 nM
IC50 [2]: ≤ 100 nM

Cc1c2c(nn1C1CCOCC1F)OC[C@@H](F)[C@@H](C)Nc1nc(ncc1Cl)N2 (stereo partly drawn) [E387, (10S, 11R)-14-Chloro-10-fluoro-5-(3-fluorooxan-4-yl)-4,11-dimethyl-8-oxa-2,5,6,12,16,17-hexaazatricyclo[11.3.1.0^3,7] heptadeca-1(16),3,6,13(17),14-pentaene]
IC50 [1]: ≤ 100 nM
IC50 [2]: ≤ 100 nM

C=Cc1cnc2nc1N[C@H](C)CCOc1nn(C3CCOCC3)c(C)c1N2 [E389, (11R)-14-Ethenyl-4,11-dimethyl-5-(oxan-4-yl)-8-oxa-2,5,6,12,16,17-hexaazatricyclo[11.3.1.0^3,7]heptadeca-1(16)53,6,13(17),14-pentaene]
IC50 [1]: ≤ 100 nM
IC50 [2]: ≤ 100 nM

Cc1c2c(nn1C1CCOCC1)OCC(F)C(CF)Nc1nc(ncc1Cl)N2 (stereo not drawn) [E391, 14-Chloro-10-fluoro-11-(fluoromethyl)-4-methyl-5-(oxan-4-yl)-8-oxa-2,5,6,12,16,17-hexaazatricyclo[11.3.1.0^3,7]heptadeca-1(16),3,6,13(17),14-pentaene]
IC50 [1]: ≤ 100 nM
IC50 [2]: ≤ 100 nM

Cc1[nH]nc2c1Nc1ncc(Cl)c(n1)N[C@H](C)CCO2 [E394, (11R)-14-Chloro-4,11-dimethyl-8-oxa-2,5,6,12,16,17-hexaazatricyclo[11.3.1.0^3,7]heptadeca-1(16),3,6,13(17),14-pentaene]
IC50 [1]: ≤ 100 nM
IC50 [2]: ≤ 100 nM

Cc1[nH]nc2c1Nc1ncc(Cl)c(n1)NCCCO2 [E395, 14-Chloro-4-methyl-8-oxa-2,5,6,12,16,17-hexaazatricyclo [11.3.1.0^3,7]heptadeca-1(16),3,6,13(17),14-pentaene]
IC50 [1]: ≤ 100 nM
IC50 [2]: ≤ 100 nM

Clc1cnc2nc1NCCCOc1n[nH]c(Cl)c1N2 [E396, 4,14-Dichloro-8-oxa-2,5,6,12,16,17 hexaazatricyclo[11.3.1.0^3,7] heptadeca-1(16),3,6,13(17),14-pentaene]
IC50 [1]: ≤ 100 nM
IC50 [2]: ≤ 100 nM

C[C@@H]1CCOc2n[nH]c(Cl)c2Nc2ncc(Cl)c(n2)N1 [E397, (11R)-4,14-Dichloro-11-methyl-8-oxa-2,5,6,12,16,17-hexaazatricyclo[11.3.1.0^3,7]heptadeca-1(16),3,6,13(17),14-pentaene]
IC50 [1]: ≤ 100 nM
IC50 [2]: ≤ 100 nM

CCc1c2c(nn1C1CCOCC1)OCC[C@@H](C)Nc1nc(ncc1Cl)N2 [E399, (11R)-14-Chloro-4-ethyl-11-methyl-5-(oxan-4-yl)-8-oxa-2,5,6,12,16,17-hexaazatricyclo[11.3.1.0^3,7]heptadeca-1(16),3,6,13(17),14-pentaene]
IC50 [1]: ≤ 100 nM
IC50 [2]: ≤ 100 nM

C#Cc1cnc2nc1N[C@H](C)CCOc1nn(C3CCOCC3)c(C)c1N2 [E401, (11R)-14-Ethynyl-4,11-dimethyl-5-(oxan-4-yl)-8-oxa-2,5,6,12,16,17-hexaazatricyclo[11.3.1.0^3,7]heptadeca-1(16),3,6,13(17),14-pentaene]
IC50 [1]: ≤ 100 nM
IC50 [2]: ≤ 100 nM

Cc1c2c(nn1C1CC(F)CN(C3COC3)C1)OCC[C@@H](C)Nc1nc(ncc1Cl)N2 (stereo partly drawn) [E410, (11R)-14-Chloro-5-[5-fluoro-1-(oxetan-3-yl)piperidin-3-yl]-4,11-dimethyl-8-oxa-2,5,6,12,16,17 hexaazatricyclo[11.3.1.0^3,7] heptadeca-1(16),3,6,13(17),14-pentaene]
IC50 [1]: ≤ 100 nM
IC50 [2]: ≤ 100 nM

Cc1c2c(nn1C1CCN(C3COC3)CC1(F)F)OCC[C@@H](C)Nc1nc(ncc1Cl)N2 (stereo partly drawn) [E411, (11R)-14-Chloro-5-[3,3-difluoro-1-(oxetan-3-yl)piperidin-4-yl]-4,11-dimethyl-8-oxa-2,5,6,12,16,17-hexaazatricyclo[11.3.1. 0^3,7]heptadeca-1(16),3,6,13(17),14-pentaene]
IC50 [1]: ≤ 100 nM
IC50 [2]: ≤ 100 nM

C[C@@H]1CCOc2nn(C3CCOCC3)c(C(F)(F)F)c2Nc2ncc(Cl)c(n2)N1 [E416, (11R)-14-Chloro-11-methyl-5-(oxan-4-yl)-4-(trifluoromethyl)-8-oxa-2,5,6,12,16,17-hexaazatricyclo[11.3.1.0^3,7]heptadeca-1(16),3,6,13(17),14-pentaene]
IC50 [1]: ≤ 100 nM
IC50 [2]: ≤ 100 nM

Cc1c2c(nn1C(C)(C)C)OCC[C@@H](C)Nc1nc(ncc1Cl)N2 [E417, (11R)-5-tert-Butyl-14-chloro-4,11-dimethyl-8-oxa-2,5,6,12,16,17-hexaazatricyclo[11.3.1.0^3,7]heptadeca-1(16),3,6,13(17),14-pentaene]
IC50 [1]: ≤ 100 nM
IC50 [2]: ≤ 100 nM

Cc1c2c(nn1C1CCOCC1(C)C)OCC[C@@H](C)Nc1nc(ncc1Cl)N2 (stereo partly drawn) [E421, (11R)-14-Chloro-5-(3,3-dimethyloxan-4-yl)-4,11-dimethyl-8-oxa-2,5,6,12,16,17-hexaazatricyclo[11.3.1.0^3,7]heptadeca-1(16),3,6,13(17),14-pentaene]
IC50 [1]: ≤ 100 nM
IC50 [2]: ≤ 100 nM

C[C@@H]1CCOc2nn(C3CN(C4COC4)C3)c(Cl)c2Nc2ncc(Cl)c(n2)N1 [E427, (11R)-4,14-Dichloro-11-methyl-5-[1-(oxetan-3-yl)azetidin-3-yl]-8-oxa-2,5,6,12,16,17-hexaazatricyclo[11.3.1.0^3,7]heptadeca-1(16),3,6,13(17),14-pentaene]
IC50 [1]: ≤ 100 nM
IC50 [2]: ≤ 100 nM

Cc1c2c(nn1C1CCOCC1)OCCCNc1nc(ncc1C(C)C)N2 [E428, 4-Methyl-5-(oxan-4-yl)-14-(propan-2-yl)-8-oxa-2,5,6,12,16,17-hexaazatricyclo[11.3.1.0^3,7]heptadeca-1(16),3,6,13(17),14-pentaene]
IC50 [1]: ≤ 10000 nM
IC50 [2]: > 10000 nM

C=C(C)c1cnc2nc1NCCCOc1nn(C3CCOCC3)c(C)c1N2 [E429, 4-Methyl-5-(oxan-4-yl)-14-(prop-1-en-2-yl)-8-oxa-2,5,6,12,16,17-hexaazatricyclo[11.3.1.0^3,7]heptadeca-1(16),3,6,13(17),14-pentaene]
IC50 [1]: ≤ 10000 nM
IC50 [2]: > 10000 nM

CCc1[nH]nc2c1Nc1ncc(Cl)c(n1)N[C@H](C)CCO2 [E430, (11R)-14-Chloro-4-ethyl-11-methyl-8-oxa-2,5,6,12,16,17-hexaazatricyclo[11.3.1.0^3,7]heptadeca-1(16),3,6,13(17),14-entaene]
IC50 [1]: ≤ 100 nM
IC50 [2]: ≤ 100 nM

Cc1[nH]nc2c1Nc1ncc(Br)c(n1)NCCCO2 [E432, 14-Bromo-4-methyl-8-oxa-2,5,6,12,16,17-hexaazatricyclo[11.3.1.0^3,7]heptadeca-1(16),3,6,13(17),14-pentaene]
IC50 [1]: ≤ 100 nM
IC50 [2]: ≤ 100 nM

Cc1[nH]nc2c1Nc1ncc(C(F)(F)F)c(n1)NCCCO2 [E433, 4-Methyl-14-(trifluoromethyl)-8-oxa-2,5,6,12,16,17-hexaazatricyclo[11.3.1.0^3,7]heptadeca-1(16),3,6,13(17),14-pentaene]
IC50 [1]: ≤ 100 nM
IC50 [2]: ≤ 100 nM

FC1(F)CN(C2COC2)CCC1n1nc2c(c1Cl)Nc1ncc(Cl)c(n1)NCCCO2 (stereo not drawn) [E446, 4,14-Dichloro-5[3,3-difluoro-1-(oxetan-3-yl)piperidin-4-yl]-8-oxa-2,5,6,12,16,17-hexaazatricyclo[11.3.1.0^3,7]heptadeca-1(16),3,6,13(17),14-pentaene]
IC50 [1]: ≤ 100 nM
IC50 [2]: ≤ 100 nM
